Measurements as given in publication PMC10993450, “New benzimidazole derivative compounds with in vitro fasciolicidal properties” (Parasites & Vectors, 2024).

Columns and labels:
[1] = Intestinal tolerability assay on murine intestinal organoids; assay type: cell-based, mouse; conditions: C57BL/6, mouse, murine small-intestinal organoids, 72 h
Experimental: The murine intestinal organoid cultures were prepared following Stemcell Technologies™ protocols (https://www.stemcell.com/intestinal-epithelial-organoid-culture-with-intesticult-organoid-growth-medium-mouse-lp.html#protocols). Small intestine sections from C57BL/6 mice were excised, washed with ice-cold PBS, minced, and 2 mm segments were washed extensively. The segments were treated with Gentle Cell Dissociation Reagent (Stemcell Technologies™, Canada), resuspended in ice-cold PBS with 0.1% BSA and filtered. This process was repeated four times, resulting in four fractions. Cells from each fraction were centrifuged, washed, and resuspended in ice-cold DMEM/F12 supplemented with glutamine and HEPES 15 mM. Each fraction was mixed with Geltrex GFR LDEV-free (Gibco, Thermo Fisher Scientific, USA) and IntestiCult™ Organoid Grow Medium Mouse (Stemcell Technologies™, Canada), added to a 24-well plate and incubated at 37 °C for 10 min for matrix polymerization. The organoids were cultured in IntestiCult™ Organoid Grow Medium Mouse, with medium changes every 2 days and splitting after 7 days.
For intestinal tolerability assays, selected hit compounds were tested in mouse intestinal organoids at 25 and 50 µM final concentrations. The protocol, based on a previous work, involved the addition of Gentle Cell Dissociation Reagent (Stemcell Technologies™, Canada) on matrix domes, the disruption of the matrix, and the incubation the suspension. After centrifugation, cells were resuspended in DMEM/F12 supplemented with glutamine and HEPES 15 mM and centrifugated again. The pellet was resuspended in a mix of Geltrex GFR LDEV-free and IntestiCult™ Organoid Grow Medium Mouse. The mix was plated in 384-well plates, and after 4 days, mature organoids were exposed to the compounds. The positive control was hydrogen peroxide (0.15% v/v), and the negative control was DMSO (0.2%). Viability after 72 h was assessed using the alamarBlue assay.

Caco2 cells = tested on: Caco2 cells; design: method as in doi:10.1016/j.molstruc.2022.133735; conditions: cited from earlier work

SMILES | viability at 72 h, 25 µM [1] | viability at 72 h, 50 µM [1] | CC50 (Caco2 cells)
Cc1ccc2[nH]c(NCc3cccs3)nc2c1 [BZD31] | 60.5% | 52.4% | –
Cc1ccc2[nH]c(NC(=O)c3ccccc3)nc2c1 [BZD46] | 99.7% | > 87% | –
COc1ccc2[nH]c(NC(=O)c3ccccc3)nc2c1 [BZD56] | 82.5% | > 87% | –
O=C(Nc1nc2cc(Cl)ccc2[nH]1)c1ccccc1 [BZD59] | 82.7% | 56.7% | ~62 µM
